Measurements taken from patent publication US7662784B2, “Method for decreasing body weight using a somatostatin receptor agonist” (Ipsen Pharma, S.A.S., priority 1997, dated 2010).
Bridge positions count the residues as written; N and C are the ends. Square brackets hold non-standard residues; d marks the D form. Peptide text beside a SMILES is read from it.

Assays:
[1] = test system: fatty (fa/fa) Zucker rats; assay: Weight loss study, chronic (6 day) treatment in obese animal model
[2] = test system: Obese (fa/fa) Zucker rats; assay: Secondary endpoints: plasma glycerol and triglycerides after 6-day treatment, oral glucose challenge; type: in vivo, rat
Description: Obese (fa/fa) Zucker rats were treated as in example 1 above. On the last day of treatment (day 6), food was removed at 5:00 p.m., and the rats were fasted overnight. At 9:00 a.m. the next day, the animals were subjected to a glucose challenge, given as 0.8 gram/kg of glucose orally. Periodic 400 μl of blood samples were taken from the tail vein (Peterson, R. G., ILAR News, 32:16-19 (1990)) 60 min. and 30 min. before and at 30, 60, 90, and 120 min. after the administration of the glucose challenge (0.8 gram/kg orally). Aprotinin (Traysylol, Bayer UK, Hayward's Health, W. Sussex, U.K. and heparin (Sigma Chemical Co., Poole, Dorset, U.K.) were added to the blood samples to a final concentration of 400 KIU/ml and 100 units/ml, respectively. Plasma fractions were prepared from these samples by centrifugation at 4000×G in a microfuge, for the estimation of triglycerides and glycerol. Samples were then stored at −80° C. until assayed.
Plasma glycerol and triglycerides were determined using the Sigma Enzymatic (Tinder) calorimetric assay kit (Cat #337-B, Sigma Chemical Co., Poole, Dorset, U.K.) and measuring absorbance at 540 nm in a spectrophotometer.

[3] = 3 mg/kg s.c. twice a day for six days, fatty Zucker rats
[4] = after six days at 3 mg/kg s.c. twice a day, samples 30 and 60 minutes before the oral glucose challenge
[5] = throughout the 2-hour test period after oral glucose challenge (0.8 gram/kg)

## C[C@@H](O)[C@@H]1NC(=O)[C@H](CCCCN)NC(=O)[C@@H](Cc2c[nH]c3ccccc23)NC(=O)[C@H](Cc2ccccc2)NC(=O)[C@H](Cc2ccccc2)NC(=O)[C@@H](N)CSSC[C@@H](C(N)=O)NC(=O)[C@H](Cc2ccccc2)NC1=O [BIM-23268, H-Cys-Phe-Phe-D-Trp-Lys-Thr-Phe-Cys-NH2] (H-CFF[dW]KTFC-NH2; disulfide 1-8)
[1]; 3 mg/kg s.c. twice a day for six days
  amount of food consumed over the entire treatment period versus control: no difference
[1]; [3]
  body weight gain versus control: lower
  toxic effect / appearance of treated group: appeared healthy
[1]; 3 mg/kg s.c. twice a day, 6-day treatment, control 26.0
  average food consumption: 25.9 g/rat/day
[1]; male fatty Zucker rats, 3 mg/kg s.c. twice a day for six days, control 418.89
  treated group's mean weight after six days: 413.6
[1]; male fatty Zucker rats, before 3 mg/kg s.c. twice a day, control 414.09
  treated group's mean weight at the start of the trial: 413.6
[2]; 6-day treatment period at the prescribed dose (3 mg/kg s.c. twice a day)
  reducing hypertriglyceridemia: effective in reducing hypertriglyceridemia
[2]; [4]
  plasma glycerol: significantly lowered
  plasma triglycerides: significantly lowered
[2]; [5]
  plasma glycerol: significantly lower
  plasma triglycerides: significantly lower
